According to patent publication US11321826B2, “High throughput method for accurate prediction of compound-induced liver injury” (AGENCY FOR SCIENCE, TECHNOLOGY AND RESEARCH, priority 2016, dated 2022):
Where two headings read alike, the source gives them in different places. Where a SMILES comes first, the peptide text is derived from it.

Assays:
[1] = test system: hepatocytes in vivo; conditions: cited from earlier work
[2] = test system: HepaRG cells; assay: High-content imaging of HepaRG cells after fluorescent staining of RELA and nuclear DNA; conditions: 16 h treatment; puromycin 100 μg/mL, acarbose 1000 μg/mL, tetracycline 1000 μg/mL, ethylene glycol 100 μg/mL, lithium chloride 1000 μg/mL; FIG. 3
Method: The HepG2 cells were cultured in T75 Corning Costar flasks with Dulbecco's modified eagle medium (DMEM) supplemented with 10% fetal bovine serum (FBS) and 1% penicillin-streptomycin. The HepG2 cells were seeded into 384-well black plates with transparent bottom (#781091; Greiner, Kremsmuenster, Austria) at a density of 10.000 cells/cm^2. The HepG2 cells were cultured for three days to attain confluency before overnight compound treatment of sixteen hours. The HepaRG cells were directly seeded at a density of 250.000 cells/cm^2 into 384-well black plates with transparent bottom (#781091; Greiner) coated with 100 μg/mL collagen I. For the first twenty-four hours of cultivation a Williams E medium, supplemented with HepaRG Thaw, Plate & General Purpose medium was used. […]
Screening was performed by using a dose-range of the following seven concentrations for each compound: 2 μM, 15 μM, 63 μM, 125 μM, 250 μM, 500 μM and 1 mM. […] Z′ values of each plate were calculated and values were all above 0.5, ranging from 0.62 to 0.89.
Cells were fixed for six hours with 3.7% formaldehyde in phosphate-buffered saline (PBS) after sixteen hours of compound exposure. […] F-actin was detected on every plate with rhodamine phalloidin (#R415; 1:100; Invitrogen, Singapore). […]

[3] = test system: other organs than the liver; conditions: in vivo; cited from earlier work
[4] = classification based on literature on compound-induced clinical effects in humans

Compound | toxicity for hepatocytes in vivo [1, 4] | also measured
COC(=O)[C@H](Cc1ccccc1)NC(=O)[C@@H](N)CC(=O)O [Aspartame] (H-Asp-Phe-OMe) | not toxic | –
Cn1cnc([N+](=O)[O-])c1Sc1ncnc2nc[nH]c12 [Azathioprine] | toxic | –
[Cl][Cd][Cl] [Cadmium Chloride] | toxic | –
Cn1c(=O)c2c(ncn2C)n(C)c1=O [Caffeine] | not toxic | –
OCCO [Ethylene glycol, ethylene glycol] | – | phenotypic changes / altered distribution of RELA (NF-κB p65) in HepaRG cells versus vehicle control [2]: did not induce obvious phenotypic changes; toxicity in humans for other organs than the liver [3]: nephrotoxic and neurotoxic
CN1CCCC1c1cccnc1 (centres unmarked) [Nicotine] | – | toxicity for hepatocytes in vivo ([1]; human, in vivo): not toxic
COc1ccc(C[C@H](N)C(=O)N[C@H]2[C@@H](O)[C@H](n3cnc4c(N(C)C)ncnc43)O[C@@H]2CO)cc1 [Puromycin, puromycin] | toxic | –
C[C@H]1O[C@H](O[C@H]2[C@H](O)[C@@H](O)[C@@H](O[C@H]3[C@H](O)[C@@H](O)C(O)O[C@@H]3CO)O[C@@H]2CO)[C@H](O)[C@@H](O)[C@@H]1N[C@H]1C=C(CO)[C@@H](O)[C@H](O)[C@H]1O (some centres unmarked) [acarbose] | toxic for hepatocytes in vivo | –
[Cl-].[Li+] [lithium chloride] | – | toxicity in humans for other organs than the liver [3]: nephrotoxic
CN(C)[C@@H]1C(O)=C(C(N)=O)C(=O)[C@@]2(O)C(O)=C3C(=O)c4c(O)cccc4[C@@](C)(O)[C@H]3C[C@@H]12 [tetracycline] | toxic for hepatocytes in vivo | –
